Active and inactive are the calls of the source.
Key:
[1] = A cytotoxicity screen of small molecule inhibitors of the PhoP region in Salmonella typhi identified in the primary screen. [Related pubchem assays: 1850, 1864, 1985 ]; assay type: functional
[2] = molecular target: T1, Estrogen receptor (Homo sapiens, UniProt P03372);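 also: potency for inhibiting coactivator peptide recruitment to the receptor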
T1 sequence (P03372 whole entry): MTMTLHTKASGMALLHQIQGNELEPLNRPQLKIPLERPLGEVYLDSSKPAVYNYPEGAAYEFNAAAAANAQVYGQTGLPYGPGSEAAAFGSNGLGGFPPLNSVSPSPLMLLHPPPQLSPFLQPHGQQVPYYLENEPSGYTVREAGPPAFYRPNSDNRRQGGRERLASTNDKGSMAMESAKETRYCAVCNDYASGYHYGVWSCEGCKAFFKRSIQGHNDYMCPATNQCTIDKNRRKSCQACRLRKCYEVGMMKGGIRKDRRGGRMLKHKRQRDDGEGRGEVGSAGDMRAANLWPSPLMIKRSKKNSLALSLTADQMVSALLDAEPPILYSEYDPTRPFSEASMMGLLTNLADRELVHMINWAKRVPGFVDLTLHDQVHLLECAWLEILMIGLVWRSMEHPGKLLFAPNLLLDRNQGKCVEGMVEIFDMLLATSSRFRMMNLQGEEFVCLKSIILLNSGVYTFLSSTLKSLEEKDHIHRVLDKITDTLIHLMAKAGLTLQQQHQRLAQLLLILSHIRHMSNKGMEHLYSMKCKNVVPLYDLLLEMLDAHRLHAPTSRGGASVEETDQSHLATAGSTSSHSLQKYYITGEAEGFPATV

[3] = molecular target: Estrogen receptor beta (Homo sapiens, UniProt Q92731);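 also: recombinant ER-beta bound to coactivator SRC1 peptide in presence of estradiol agonist; inhibitors block coactivator peptide binding and lower the FRET signal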
[4] = molecular target: T2, Corticotropin-releasing factor receptor 2/Corticotropin-releasing factor-binding protein (Homo sapiens, UniProt P24387+Q13324); test: activators of CRF receptor 2 with binding protein – uHTS hits, confirmation (AID 602473); assay type: functional; settings: read-out: EC50_Mean
T2 sequence (Q13324 whole entry): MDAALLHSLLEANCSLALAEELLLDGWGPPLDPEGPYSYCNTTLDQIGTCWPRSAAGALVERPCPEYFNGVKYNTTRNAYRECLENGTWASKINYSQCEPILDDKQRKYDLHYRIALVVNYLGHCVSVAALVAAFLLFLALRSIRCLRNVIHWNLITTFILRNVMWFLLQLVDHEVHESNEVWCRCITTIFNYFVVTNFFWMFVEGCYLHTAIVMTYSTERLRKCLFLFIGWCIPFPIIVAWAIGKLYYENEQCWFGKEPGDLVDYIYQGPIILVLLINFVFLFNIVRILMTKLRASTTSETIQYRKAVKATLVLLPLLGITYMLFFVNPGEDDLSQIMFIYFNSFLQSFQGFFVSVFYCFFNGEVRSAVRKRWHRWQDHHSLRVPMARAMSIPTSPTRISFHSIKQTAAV
T2 sequence (P24387 whole entry): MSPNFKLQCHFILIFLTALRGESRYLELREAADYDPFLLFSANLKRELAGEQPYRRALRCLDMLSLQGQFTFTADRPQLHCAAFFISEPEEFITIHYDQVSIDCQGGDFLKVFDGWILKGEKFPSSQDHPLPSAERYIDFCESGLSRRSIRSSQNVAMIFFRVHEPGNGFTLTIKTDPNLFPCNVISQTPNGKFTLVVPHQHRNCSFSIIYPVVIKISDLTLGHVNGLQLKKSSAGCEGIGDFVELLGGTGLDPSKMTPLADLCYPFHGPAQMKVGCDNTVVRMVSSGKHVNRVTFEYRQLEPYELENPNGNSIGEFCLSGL

[5] = molecular target: T3, Neuropeptides B/W receptor type 1 (Homo sapiens, UniProt P48145); test: Fluorescence-based dose response cell-based high throughput screening assay to identify antagonists of the G-protein coupled receptor 7 (GPR7). [Related pubchem assays: 1952 (Screening assay (GPR7 antagonists).), 1880 (Summary AID.)]; assay type: functional
T3 sequence (P48145 whole entry): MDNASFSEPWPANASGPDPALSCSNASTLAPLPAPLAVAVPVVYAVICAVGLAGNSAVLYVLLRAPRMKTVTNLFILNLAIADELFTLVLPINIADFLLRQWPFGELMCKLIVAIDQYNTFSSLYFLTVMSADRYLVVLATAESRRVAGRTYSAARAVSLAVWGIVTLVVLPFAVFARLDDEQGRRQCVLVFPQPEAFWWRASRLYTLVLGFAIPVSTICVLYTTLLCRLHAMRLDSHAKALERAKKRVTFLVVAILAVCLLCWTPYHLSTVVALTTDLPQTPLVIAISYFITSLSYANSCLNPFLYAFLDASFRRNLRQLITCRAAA

[6] = molecular target: Melanin-concentrating hormone receptor 1 (Homo sapiens, UniProt Q99705); test: Fluorescence-based counterscreen for antagonists of the G-protein coupled receptor 7 (GPR7): cell-based high throughput dose response assay to identify antagonists of the melanin-concentrating hormone receptor 1 (MCHR1).; assay type: functional
Chain of Melanin-concentrating hormone receptor 1 (Q99705 whole entry): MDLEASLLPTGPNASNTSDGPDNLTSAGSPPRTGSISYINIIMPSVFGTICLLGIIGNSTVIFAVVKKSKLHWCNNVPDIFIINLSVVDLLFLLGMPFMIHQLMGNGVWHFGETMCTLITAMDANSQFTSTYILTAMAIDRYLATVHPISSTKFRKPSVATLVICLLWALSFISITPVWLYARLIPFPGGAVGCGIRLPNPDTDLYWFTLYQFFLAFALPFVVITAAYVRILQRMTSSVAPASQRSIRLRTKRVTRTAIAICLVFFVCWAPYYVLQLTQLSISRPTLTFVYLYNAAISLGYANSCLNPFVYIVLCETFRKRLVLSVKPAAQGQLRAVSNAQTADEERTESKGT

[7] = Trypanosoma cruzi growth suppression in host cells – NIH3T3 host cells, beta-gal luminescence, confirmation (AID 2044); assay type: functional, cell-based;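 also: intracellular parasites grown in NIH/3T3 mouse fibroblasts as host cells; luminescent beta-galactosidase reporter signal from transgenic T. cruzi replicating inside host cells; inhibitors lower the luminescence signal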
[8] = NIH3T3 cell viability loss – ATP luminescence, mouse fibroblasts, counter-screen, dose response (AID 2010); assay type: functional, cell-based;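 also: cells exposed to compound for about 90 hours before reading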
[9] = molecular target: T4, Aminopeptidase N (Plasmodium falciparum FcB1/Columbia, UniProt O96935); test: malaria alanyl aminopeptidase activity blockers – biochemical, fluorogenic H-Leu-NHMec substrate, 1536-well (AID 1445); design: species or system Plasmodium falciparum 3D7, 3D7
T4 sequence (O96935 whole entry): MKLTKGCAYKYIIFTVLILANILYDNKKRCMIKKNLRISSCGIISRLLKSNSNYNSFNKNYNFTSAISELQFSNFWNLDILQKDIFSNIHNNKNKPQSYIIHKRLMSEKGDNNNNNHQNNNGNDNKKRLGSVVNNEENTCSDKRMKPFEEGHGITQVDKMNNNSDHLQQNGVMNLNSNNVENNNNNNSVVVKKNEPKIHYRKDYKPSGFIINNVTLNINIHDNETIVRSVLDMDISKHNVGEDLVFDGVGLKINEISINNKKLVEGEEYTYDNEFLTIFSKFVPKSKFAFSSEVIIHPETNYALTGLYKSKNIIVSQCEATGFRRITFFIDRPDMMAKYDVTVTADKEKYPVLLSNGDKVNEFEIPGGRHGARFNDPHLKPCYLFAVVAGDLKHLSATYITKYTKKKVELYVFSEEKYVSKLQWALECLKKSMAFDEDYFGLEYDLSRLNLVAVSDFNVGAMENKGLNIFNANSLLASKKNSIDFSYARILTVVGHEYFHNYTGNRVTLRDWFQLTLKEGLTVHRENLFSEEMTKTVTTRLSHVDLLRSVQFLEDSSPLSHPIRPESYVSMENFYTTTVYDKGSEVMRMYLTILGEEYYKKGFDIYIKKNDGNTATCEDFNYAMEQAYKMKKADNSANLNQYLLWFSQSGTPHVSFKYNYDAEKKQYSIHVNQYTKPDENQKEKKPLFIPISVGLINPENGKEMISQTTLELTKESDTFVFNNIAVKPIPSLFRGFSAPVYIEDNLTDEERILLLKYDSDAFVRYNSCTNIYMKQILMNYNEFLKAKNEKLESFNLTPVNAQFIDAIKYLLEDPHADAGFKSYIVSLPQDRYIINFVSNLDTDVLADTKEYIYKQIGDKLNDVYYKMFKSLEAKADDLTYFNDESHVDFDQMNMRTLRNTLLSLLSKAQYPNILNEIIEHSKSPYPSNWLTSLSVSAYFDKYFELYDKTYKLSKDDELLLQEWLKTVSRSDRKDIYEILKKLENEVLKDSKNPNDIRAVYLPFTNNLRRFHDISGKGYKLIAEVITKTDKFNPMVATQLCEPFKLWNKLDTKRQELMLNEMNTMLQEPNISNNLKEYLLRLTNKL

[10] = cells; assay type: functional, cell-based
[11] = cells; assay type: functional, cell-based; remark: listed apart in the source
[12] = molecular target: Nonstructural protein 1 (Influenza A virus, UniProt Q194T2); assay type: functional, Influenza A virus (A/California/07/2009(H1N1))
Chain of Nonstructural protein 1 (Q194T2 whole entry): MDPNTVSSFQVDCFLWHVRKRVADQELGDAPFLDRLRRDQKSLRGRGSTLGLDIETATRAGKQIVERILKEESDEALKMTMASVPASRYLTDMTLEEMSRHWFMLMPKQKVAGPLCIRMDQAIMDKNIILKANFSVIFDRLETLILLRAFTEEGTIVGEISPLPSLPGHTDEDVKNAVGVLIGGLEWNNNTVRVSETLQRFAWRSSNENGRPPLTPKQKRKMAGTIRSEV

[13] = molecular target: T5, Microphthalmia-associated transcription factor (Homo sapiens, UniProt O75030); test: reducers of TRPM1 reporter luminescence, concentration series – cell-based, SK-MEL-5, cherry-picked, set 3, MITF inhibitor project, dose response (AID 493073); assay type: functional;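 also: SK-MEL-5 melanoma cells with luciferase driven by the MITF target TRPM1 promoter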
T5 sequence (O75030 whole entry): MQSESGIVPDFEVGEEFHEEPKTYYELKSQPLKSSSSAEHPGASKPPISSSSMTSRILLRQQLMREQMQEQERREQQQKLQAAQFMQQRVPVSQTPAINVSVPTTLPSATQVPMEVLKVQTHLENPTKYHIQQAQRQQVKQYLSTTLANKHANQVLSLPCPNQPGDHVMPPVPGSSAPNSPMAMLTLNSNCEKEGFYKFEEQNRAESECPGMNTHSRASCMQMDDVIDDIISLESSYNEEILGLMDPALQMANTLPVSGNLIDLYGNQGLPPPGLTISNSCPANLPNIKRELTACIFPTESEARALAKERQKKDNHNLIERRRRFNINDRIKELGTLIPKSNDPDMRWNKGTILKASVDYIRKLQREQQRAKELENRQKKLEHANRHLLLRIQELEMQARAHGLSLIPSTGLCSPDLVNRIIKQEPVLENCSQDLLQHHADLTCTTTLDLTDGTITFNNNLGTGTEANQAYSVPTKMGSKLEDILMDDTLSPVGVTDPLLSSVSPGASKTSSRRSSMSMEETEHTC

[14] = molecular target: Peroxisome proliferator-activated receptor gamma/Nuclear receptor coactivator 1 (Homo sapiens, UniProt P37231); test: (§1) TR-FRET dose response biochemical High Throughput Screening assay for agonists of the steroid receptor coactivator 1 (SRC-1) recruitment by the peroxisome proliferator-activated receptor gamma (PPAR gamma): non-selective agonists. [Related pubchem assays (depositor defined):AID1300, AID1808, AID504735, AID631]; assay type: protein assay
[15] = molecular target: Peroxisome proliferator-activated receptor gamma/Nuclear receptor coactivator 3 (Homo sapiens, UniProt P37231); test: as §1, with “3 (SRC-3)” for “1 (SRC-1)”, “assays: 1301 (Confirmation screen.), 1048 (Primary screen.)]” for “assays (depositor defined):AID1300, AID1808, AID504735, AID631]”; assay type: functional
Chain of Peroxisome proliferator-activated receptor gamma/Nuclear receptor coactivator 3 (P37231 whole entry): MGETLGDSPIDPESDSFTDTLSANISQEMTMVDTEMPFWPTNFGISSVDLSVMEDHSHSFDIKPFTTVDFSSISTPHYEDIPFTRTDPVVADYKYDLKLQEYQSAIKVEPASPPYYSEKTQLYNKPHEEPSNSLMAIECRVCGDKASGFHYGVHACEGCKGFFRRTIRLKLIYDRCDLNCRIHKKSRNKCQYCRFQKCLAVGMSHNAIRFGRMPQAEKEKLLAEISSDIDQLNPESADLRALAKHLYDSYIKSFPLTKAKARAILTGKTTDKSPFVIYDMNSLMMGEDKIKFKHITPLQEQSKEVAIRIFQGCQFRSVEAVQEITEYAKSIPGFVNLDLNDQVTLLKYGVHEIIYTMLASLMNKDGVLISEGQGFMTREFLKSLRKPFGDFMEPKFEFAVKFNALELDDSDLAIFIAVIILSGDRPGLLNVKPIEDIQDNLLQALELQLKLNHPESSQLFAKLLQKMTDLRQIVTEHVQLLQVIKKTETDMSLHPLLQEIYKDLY
Chain of Peroxisome proliferator-activated receptor gamma/Nuclear receptor coactivator 3 (Q9Y6Q9 whole entry, further chain): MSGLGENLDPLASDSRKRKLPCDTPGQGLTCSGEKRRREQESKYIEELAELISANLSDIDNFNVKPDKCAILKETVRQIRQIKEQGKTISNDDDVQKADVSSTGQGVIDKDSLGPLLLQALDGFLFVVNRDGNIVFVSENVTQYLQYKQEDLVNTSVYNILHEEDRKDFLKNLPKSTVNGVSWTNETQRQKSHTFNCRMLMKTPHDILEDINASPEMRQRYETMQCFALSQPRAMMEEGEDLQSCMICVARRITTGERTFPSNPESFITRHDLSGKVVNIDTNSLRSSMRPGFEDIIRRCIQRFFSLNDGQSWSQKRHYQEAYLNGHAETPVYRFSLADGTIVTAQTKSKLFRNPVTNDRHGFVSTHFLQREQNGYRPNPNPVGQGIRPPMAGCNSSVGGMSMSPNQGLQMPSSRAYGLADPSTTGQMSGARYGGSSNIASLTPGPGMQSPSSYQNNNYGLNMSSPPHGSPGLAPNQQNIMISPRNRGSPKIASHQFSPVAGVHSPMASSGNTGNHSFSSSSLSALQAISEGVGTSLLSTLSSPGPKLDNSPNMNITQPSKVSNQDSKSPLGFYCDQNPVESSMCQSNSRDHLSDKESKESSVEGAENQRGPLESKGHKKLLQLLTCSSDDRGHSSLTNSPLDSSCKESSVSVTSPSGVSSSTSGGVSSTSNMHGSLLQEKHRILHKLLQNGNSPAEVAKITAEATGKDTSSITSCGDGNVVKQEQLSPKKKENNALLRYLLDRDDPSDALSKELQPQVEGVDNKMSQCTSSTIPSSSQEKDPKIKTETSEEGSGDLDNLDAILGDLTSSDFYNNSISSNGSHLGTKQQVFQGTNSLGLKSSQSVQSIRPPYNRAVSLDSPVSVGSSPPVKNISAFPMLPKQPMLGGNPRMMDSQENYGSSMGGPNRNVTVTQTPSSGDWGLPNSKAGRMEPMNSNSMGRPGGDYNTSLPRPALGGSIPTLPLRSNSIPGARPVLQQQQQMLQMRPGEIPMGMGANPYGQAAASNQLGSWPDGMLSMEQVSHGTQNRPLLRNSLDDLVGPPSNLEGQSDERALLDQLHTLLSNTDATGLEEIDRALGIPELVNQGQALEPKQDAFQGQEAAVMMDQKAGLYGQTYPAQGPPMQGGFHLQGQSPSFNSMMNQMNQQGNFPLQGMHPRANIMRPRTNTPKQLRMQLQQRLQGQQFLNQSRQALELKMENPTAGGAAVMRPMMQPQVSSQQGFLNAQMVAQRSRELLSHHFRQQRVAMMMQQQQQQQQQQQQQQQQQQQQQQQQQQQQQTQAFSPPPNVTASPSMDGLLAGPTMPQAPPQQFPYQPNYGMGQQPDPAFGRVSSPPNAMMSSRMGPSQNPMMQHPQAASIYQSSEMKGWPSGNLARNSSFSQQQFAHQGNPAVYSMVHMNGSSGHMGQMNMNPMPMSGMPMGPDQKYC

[16] = molecular target: Peroxisome proliferator-activated receptor gamma/Nuclear receptor coactivator 2 (Homo sapiens, UniProt P37231); test: TR-FRET dose response biochemical High Throughput Screening assay for agonists of the steroid receptor coactivator 2 (SRC-2) recruitment by the peroxisome proliferator-activated receptor gamma (PPAR gamma): non-selective agonists. [Related pubchem assays: 1297, 1032 ]; assay type: functional
Chain of Peroxisome proliferator-activated receptor gamma/Nuclear receptor coactivator 2 (P37231 whole entry): as the sequence (P37231 whole entry) above
Chain of Peroxisome proliferator-activated receptor gamma/Nuclear receptor coactivator 2 (Q15596 whole entry, further chain): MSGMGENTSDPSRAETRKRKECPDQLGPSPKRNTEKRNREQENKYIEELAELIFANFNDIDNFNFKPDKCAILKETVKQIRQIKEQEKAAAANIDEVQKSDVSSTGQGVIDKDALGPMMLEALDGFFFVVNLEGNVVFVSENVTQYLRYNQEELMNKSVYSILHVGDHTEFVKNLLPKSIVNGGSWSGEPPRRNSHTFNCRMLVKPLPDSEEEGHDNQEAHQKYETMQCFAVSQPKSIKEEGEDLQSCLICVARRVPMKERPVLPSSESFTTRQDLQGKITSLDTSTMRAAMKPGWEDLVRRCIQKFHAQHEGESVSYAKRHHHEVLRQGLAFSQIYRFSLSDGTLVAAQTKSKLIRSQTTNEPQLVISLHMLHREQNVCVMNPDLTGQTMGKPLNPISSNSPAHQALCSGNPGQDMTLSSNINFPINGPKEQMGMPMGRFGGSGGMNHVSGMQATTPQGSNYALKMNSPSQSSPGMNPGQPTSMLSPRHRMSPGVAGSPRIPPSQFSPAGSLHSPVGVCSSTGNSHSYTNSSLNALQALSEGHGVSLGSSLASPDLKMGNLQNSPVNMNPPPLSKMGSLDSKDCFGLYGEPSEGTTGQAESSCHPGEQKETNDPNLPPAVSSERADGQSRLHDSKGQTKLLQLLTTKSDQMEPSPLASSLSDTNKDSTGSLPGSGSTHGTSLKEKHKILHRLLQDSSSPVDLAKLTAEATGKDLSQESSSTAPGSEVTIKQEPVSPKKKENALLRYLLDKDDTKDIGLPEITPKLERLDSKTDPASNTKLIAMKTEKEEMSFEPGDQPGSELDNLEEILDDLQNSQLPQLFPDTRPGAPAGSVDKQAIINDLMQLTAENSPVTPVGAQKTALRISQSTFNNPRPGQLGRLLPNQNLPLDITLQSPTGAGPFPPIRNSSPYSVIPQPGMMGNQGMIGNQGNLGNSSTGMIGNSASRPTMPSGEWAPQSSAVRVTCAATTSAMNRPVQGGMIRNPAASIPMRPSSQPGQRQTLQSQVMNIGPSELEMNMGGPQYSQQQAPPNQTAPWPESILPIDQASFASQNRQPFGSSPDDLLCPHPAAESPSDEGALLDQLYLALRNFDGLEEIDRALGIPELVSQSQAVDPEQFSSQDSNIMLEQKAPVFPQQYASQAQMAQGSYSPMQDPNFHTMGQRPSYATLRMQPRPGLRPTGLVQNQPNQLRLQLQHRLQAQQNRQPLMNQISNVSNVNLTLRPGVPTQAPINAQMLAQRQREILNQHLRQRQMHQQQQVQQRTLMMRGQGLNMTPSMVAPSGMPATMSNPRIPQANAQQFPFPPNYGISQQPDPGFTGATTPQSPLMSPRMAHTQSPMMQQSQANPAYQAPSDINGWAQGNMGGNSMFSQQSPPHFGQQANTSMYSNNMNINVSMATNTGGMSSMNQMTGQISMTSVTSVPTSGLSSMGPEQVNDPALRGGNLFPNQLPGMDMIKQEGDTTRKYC

[17] = HEK-293T cell viability reduction – luminescence, B-cell screen hits, cytotoxicity control for BCR NF-kB inhibitor project, dose response (AID 489021); assay type: functional, cell-based;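 also: HEK-293T cells carrying an NF-kB luciferase reporter; cells exposed to compound for about 14 hours before viability readout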
[18] = viability of uninfected HEp-2 cells – cell-based, HTS, cytotoxicity control for RSV inhibitor project, dose response (AID 2410); assay type: functional; settings: human respiratory syncytial virus
[19] = molecular target: T6, Heat shock factor protein 1 (Mus musculus, UniProt P38532); test: enhancement of HSF1-driven luciferase signal – cell-based, NIH3T3, luminescence, dose retest, confirmation (AID 435004); assay type: functional;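 also: stress induced by proteasome inhibitor MG132 added 30 min after compound; luciferase reporter driven by HSF1 response element in NIH3T3 cells; actives raise luminescence as potentiators of the MG132 stress response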
T6 sequence (P38532 whole entry): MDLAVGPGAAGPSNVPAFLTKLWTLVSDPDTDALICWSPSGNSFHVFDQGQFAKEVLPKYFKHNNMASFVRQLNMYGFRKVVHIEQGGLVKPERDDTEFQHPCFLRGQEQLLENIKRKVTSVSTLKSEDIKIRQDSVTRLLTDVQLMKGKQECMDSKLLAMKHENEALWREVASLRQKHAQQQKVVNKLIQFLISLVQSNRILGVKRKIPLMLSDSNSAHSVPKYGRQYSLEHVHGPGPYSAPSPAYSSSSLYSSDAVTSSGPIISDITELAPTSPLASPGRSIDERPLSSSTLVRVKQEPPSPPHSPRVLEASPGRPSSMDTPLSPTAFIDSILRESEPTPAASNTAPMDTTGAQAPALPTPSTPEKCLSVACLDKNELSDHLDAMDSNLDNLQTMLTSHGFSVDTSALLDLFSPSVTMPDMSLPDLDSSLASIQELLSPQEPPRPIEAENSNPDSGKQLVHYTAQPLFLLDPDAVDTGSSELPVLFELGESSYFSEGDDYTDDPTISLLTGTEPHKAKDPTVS

[20] = molecular target: Cytochrome P450 2D6 (Homo sapiens, UniProt P10635); test: qHTS Assay for Inhibitors and Substrates of Cytochrome P450 2D6. [Related pubchem assays: 410 ]; assay type: ADME; settings: read-out: Potency
Chain of Cytochrome P450 2D6 (P10635 whole entry): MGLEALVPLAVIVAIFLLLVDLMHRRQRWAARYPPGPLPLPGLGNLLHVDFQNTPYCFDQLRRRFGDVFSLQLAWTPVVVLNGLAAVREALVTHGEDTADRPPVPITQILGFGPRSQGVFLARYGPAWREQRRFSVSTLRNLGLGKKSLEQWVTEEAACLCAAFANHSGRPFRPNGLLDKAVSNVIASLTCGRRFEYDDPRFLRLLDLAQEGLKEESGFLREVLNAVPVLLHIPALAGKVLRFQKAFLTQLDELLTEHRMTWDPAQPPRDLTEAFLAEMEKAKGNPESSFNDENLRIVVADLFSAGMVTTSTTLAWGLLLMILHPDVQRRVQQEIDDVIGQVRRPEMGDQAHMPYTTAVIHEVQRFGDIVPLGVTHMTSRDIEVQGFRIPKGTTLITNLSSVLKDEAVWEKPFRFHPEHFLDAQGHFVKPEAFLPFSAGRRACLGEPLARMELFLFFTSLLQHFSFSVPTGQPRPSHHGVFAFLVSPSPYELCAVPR

[21] = molecular target: Cytochrome P450 3A4 (Homo sapiens, UniProt P08684); settings: Potency;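 also: confirmatory qHTS run detecting inhibitors and substrates of CYP3A4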

## COc1ccccc1/C=C/C(=O)Nc1cccc(C(C)=O)c1
[1]
  EC50: > 50 µM (active)

## O=C(Nc1ccc(Cc2ccncc2)cc1)C1CCC(N2C(=O)C3CC=CCC3C2=O)CC1 (stereo not given)
[2]
  IC50: > 50 µM (not active)
[3]
  IC50: > 50 µM (not active)

## CCOC(=O)c1cc2ccccc2n1CCN(CC)CC
[2]
  IC50: > 50 µM (not active)
[4]
  EC50: 6.45 µM (active)

## O=[N+]([O-])c1nn(-c2ccc3c(c2)OCCO3)[n+]([O-])c1Nc1ccc(Cl)cc1
[5]
  IC50: > 43.8 µM (not active)
[6]
  IC50: > 43.8 µM (not active)
[7]
  EC50: 0.131 µM (active)
[8]
  EC50: > 60 µM (not active)

## Cc1ccc(N=C(S)NCc2ccc(Cl)cc2)c(C)c1
[5]
  IC50: > 43.8 µM (not active)
[6]
  IC50: 17.1 µM (not active)

## Cc1ccc(OCC(O)Cn2c(N)nc3c2c(=O)n(C)c(=O)n3C)cc1 (stereo not given)
[1]
  EC50: > 50 µM (active)

## O=C(N/N=C/c1cc(Cl)ccc1O)c1ccncc1
[9]
  IC50: 22.3 µM (active)
[10]
  EC50: 18.1 µM (active)
[11]
  EC50: > 350 µM (not active)
[12]
  IC50: 5.05 µM (active)
[13]
  AC50: 8.98 µM (active)

## O=C(O)COc1ccc(Br)cc1CP(=O)(c1ccccc1)c1ccccc1
[9]
  IC50: 49.3 µM (active)

## Nc1ncncc1-c1ccc(Cl)cc1
[1]
  EC50: > 50 µM (active)

## CCn1c(=O)cc(SCC(=O)N2CCCCC2)c2ccccc21
[14]
  EC50: > 79.4 µM (inactive)
[15]
  EC50: > 79.4 µM (not active)
[16]
  EC50: > 79.4 µM (not active)
[17]
  IC50: > 80 µM (inactive)

## Cc1ccccc1CSc1nc(O)c2c[nH]nc2n1
[9]
  IC50: 65.2 µM (active)

## CC1=CC(C)(C)Nc2ccc(OC(=O)C(Cc3ccccc3)N3C(=O)c4ccccc4C3=O)cc21 (stereo not given)
[18]
  CC50: > 50 µM (active)
[19]
  EC50: > 260 µM (inactive)
[17]
  IC50: > 80 µM (inactive)

## CC1=NCCc2c1[nH]c1cc(O)ccc21 [HARMALOL]
[20]
  AC50: 31.6 µM (inconclusive)

## CCCCc1nc2c(c3c1CC(C)OC3)CN(CCOc1ccccc1)CC2 (stereo not given)
[20]
  AC50: 3.16 µM (inconclusive)
[21]
  AC50: 3.16 µM (inconclusive)
